Experiment [1] relates to TCF/LEF reporter in HEK293-pBARL cells. Briefly: cells. The settings on record: Homo sapiens.
Experimental: HEK293-pBARL cells were derived from HEK293 cells and they stably expressed a firefly-luciferase reporter gene driven by a promoter containing 12 copies of TCF/LEF binding sequences. These cells were maintained in DMEM and supplemented with 10% FBS and 1% penicillin-streptomycin (Invitrogen). Reporter gene assays were conducted in anti-biotic free media. […] These cells also contained a renilla-luciferase reporter gene driven by the ubiquitous EF1α promoter as a control. HEK293-pBarl reporter cell lines were seeded into 384-well culture plates (Corning) at 6000 cells/well. 24 hours after plating, cells were treated overnight with relevant compounds and assayed using DualGlo assay kit (Promega). Luminescent intensities were read by EnVision (PerkinElmer, Waltham, Mass.). Firefly luciferase intensity is normalized by renilla luciferase intensity.
Cells were cultured in 384 well plates to appropriate density (40 μl total plating volume). 24 hours after plating, cells were treated with 100 nl compounds. 24 hours after incubation with compounds (48 hours after plating), assay reagents were prepared by mixing Luciferase Assay solution with Luciferase substrate and Stop & Glo solution to Stop & Glo substrate (extra reagents can be aliquoted and frozen for future use and are stable for at least one freeze/thaw cycle). […] The plate was spun down and 10 minutes were allowed for signal stabilization. Luciferase signal on the Perkin Elmer EnVision using the following parameters: Distance between plate & detector (mm)=0.2; Measurement time(s)=0.1; Glow (CT2) correction factor=0. Once the initial data is secure, a volume of Stop & Glo was added equal to each well equal to the volume of Luciferase reagent added above (If 10 μl Luciferase Reagent was added, 10 μl Stop & Glo was also added). The plate was spun down and 10 minutes were allowed for signal stabilization. The plate was read on the EnVision using the same parameters detailed above.
Experiment [2] has as its system phospho-Tau (Ser199) in SH-SY5Y cells. Briefly: Tau phosphorylation assay (phospho-Tau Ser199 ELISA). Format: cell-based, human. The settings on record: Homo sapiens, SH-SY5Y, read-out: p-Tau Inhibition ELISA EC50 SH-SY5Y.
Experimental: Tau Phosphorylation and Total Tau Assay
SH-SY5Y cells were maintained in DMEM supplemented with 10% heat-inactivated FBS and 1% penicillin-streptomycin (Invitrogen) unless otherwise stated. ELISA kits for phospho-Tau (Ser199) and total Tau detection were purchased from Invitrogen (KHB0041, and KHB7041 respectively). Briefly, SH-SY5Y cells were seeded at 50,000 cells/200 μL/well in 96 well plates and after overnight incubation, treated with various doses of chemical compounds at 0.2 μL/well. The next day cells were washed with PBS twice before being lysed in 100 μL Lysis buffer/well. 50 μL of cell lysate of each sample was transferred to an ELISA vial coated with the capture antibody, and the mixture was incubated at room temperature for 2 hours, before the supernatant was aspired, and each vial washed four times. 100 μL of detection antibody was then added to each well, incubated for 1 hour, and then washed four times. […] Data were scaled using the positive and neutral controls and fitted for IC50.
A standard protocol using an immunoassay kit to quantify total Tau protein and phospho-Tau (Ser199) protein in SH-SY5Y human neuroblastoma cells was employed. Human Tau (Total) ELISA kit (#KHB0041) and human phosphor-Tau (Ser199) ELISA kit were purchased from Invitrogen (#KHB7041)
50,000 cells were seeded in 200 μl per well in cell culture media (250,000 cells/ml). Cells were incubated overnight @37° C. Cells were induced with appropriate doses of inhibitors and incubated for approximately 24 hrs @37° C. Cell lysates were harvested by washing cells once with cold PBS and adding 100 μl cold lysis buffer and pipette up and down vigorously. Lysate was transferred to 96 well PCR plate and centrifuged at 4,000 rpm for 20 minutes at 4° C.
Well strips were warmed and inserted into the frame. 100μ of standard diluent buffer were loaded into ZERO wells, and 100 ul of each standard concentrations (both total Tau and pTau) were loaded into wells in duplicate. Samples were loaded to each well that would be analyzed for total Tau, 85 μl standard diluent buffer and 15 μl cell lysate were added. To each well that will be analyzed for pTau (Ser199) 50 μl standard diluent buffer+50 μl cell lysate were added. Plates were tapped gently on the side to mix. Certain wells were left empty for chromogen blank. Plates were covered and incubated for 2 hours at room temperature. Wells were aspirated 4 times (400 μl diluted wash buffer, left for 30 seconds, aspirated all wells; alternatively used automated plate washer and programmed in a 30 second hold between each cycle). 100 μl of detection antibody solution were added to each well except chromogen blanks. Anti-total Tau was added to wells being analyzed for total Tau, anti-pTau (Ser199) was added to wells being analyzed for pTau (Ser199), and plates were tapped gently on the side to mix. Plates were covered and incubated for 1 hour at room temperature, then wells were aspirated and washed 4 times as described above. 100 μl of anti-rabbit IgG HRP working solution (prepared ahead) were added to each well except chromogen blanks, and plates were covered and incubated for 30 minutes at room temperature, then wells were aspirated and washed 4 times as described above. 100 μl of stabilized chromogen were added to each well (the liquid turned blue). Plates were incubates for 30 minutes at room temperature in the dark, then 100 μl of stop solution were added to each well, and plates were tapped gently on the side to mix. Absorbance of each well was read at 450 nm (within 2 hours of adding stop solution).
The subject of experiment [3] is β-catenin nuclear translocation in U2-OS cells. Description: β-Catenin nuclear localization assay. The settings on record: Homo sapiens, U2OS, read-out: beta-Catenin translocation EC50. In kind it is cell-based.
Experimental: β-Catenin Nuclear Localization Assay
U2-OS cells stably expressing two complimentary β-galactosidase fragments (one part on β-Catenin and the other constitutively expressed in the cell nucleus) were maintained in DMEM F12 supplemented with 10% FBS. When β-catenin translocates to the nucleus, the complimentary fragments form a complete β-galactosidase, the amount of which is then quantified by β-galactosidase activity (DiscoveRx). Cells were seeded in a 384-well CulturPlate (Perkin Elmer, Boston, Mass.) with 10,000 per well in 20 μL DMEM F12 containing 10% FCS, 100 U/ml penicillin and 100 μg/mL streptomycin. After overnight incubation at 37° C., cells were stimulated with 100 nL test compound/well and then returned to the incubator for 6 h. Cells were disrupted using 12 μL substrate-containing lysis buffer from the PathHunter Detection Kit in the formulation specified by the supplier (DiscoveRx). Plates were incubated in the dark for 1 h at room temperature before measurement of β-galactosidase activity (luminescence) on an EnVision plate reader (PerkinElmer, Waltham, Mass.).
Setting [4] is: HEK293, read-out: TCF/LEF EC50 (μM).
Setting [5] is: HEK293, read-out: TCF/LEF EC50 (μM), HEK293 reporter cells.

The structures appear in SMILES notation. Read-outs that look alike come from different tables or passages of the source.

As to `Cc1[nH]nc2c1C(c1ccc(C#N)cc1)C1=C(CC(C)(C)CC1=O)N2` (centres unmarked) [Compound 34, 4-(3,7,7-trimethyl-5-oxo-4,5,6,7,8,9-hexahydro-2H-pyrazolo[3,4-b]quinolin-4-yl)benzonitrile], the EC50 in experiment [1] (setting [4]) is > 25 µM. Take `CC1(C)CC(=O)C2=C(C1)Nc1n[nH]c(Br)c1C2(C)c1ccccc1` (centres unmarked) [Compound 111]: the EC50 in experiment [2] was found to be 2.98 µM.

`Cc1[nH]nc2c1C(c1cccc(F)c1)C1=C(CC(C)(C)CC1=O)N2` (centres unmarked) [Compound 11, 4-(3-fluorophenyl)-3,7,7-trimethyl-6,7,8,9-tetrahydro-1H-pyrazolo[3,4-b]quinolin-5(4H)-one]: the EC50 in experiment [1] (setting [4]) is > 25 µM. As for `Cc1[nH]nc2c1C(c1cccc(Cl)c1)C1=C(CC(C)(C)CC1=O)N2` (centres unmarked) [Compound 14, 4-(3-chlorophenyl)-3,7,7-trimethyl-6,7,8,9-tetrahydro-1H-pyrazolo[3,4-b]quinolin-5(4H)-one], the EC50 in experiment [1] (setting [4]) was found to be 31.3 µM. Consider `Cc1[nH]nc2c1C(c1ccc(Cl)s1)C1=C(CC(C)(C)CC1=O)N2` (centres unmarked) [Compound 9, 4-(5-chlorothiophen-2-yl)-3,7,7-trimethyl-6,7,8,9-tetrahydro-1H-pyrazolo[3,4-b]quinolin-5(4H)-one], for which the EC50 in experiment [1] (setting [4]) is > 25 µM. For the compound `COc1ccccc1[C@H]1C2=C(CC(C)(C)CC2=O)Nc2n[nH]c(C)c21` [Compound 21, 4-(2-methoxyphenyl)-3,7,7-trimethyl-6,7,8,9-tetrahydro-1H-pyrazolo[3,4-b]quinolin-5(4H)-one], the EC50 in experiment [2] is > 30 µM; in experiment [1] (setting [4]), > 25 µM. On to `Cc1[nH]nc2c1C(c1ccc(F)cc1Cl)C1=C(CC(C)(C)CC1=O)N2` (centres unmarked) [Compound 35, 4-(2-chloro-4-fluorophenyl)-3,7,7-trimethyl-6,7,8,9-tetrahydro-1H-pyrazolo[3,4-b]quinolin-5(4H)-one], for which the EC50 in experiment [1] (setting [4]) is > 25 µM. Regarding `Cc1[nH]nc2c1[C@@H](c1ccccc1C(F)(F)F)C1=C(CC(C)(C)CC1=O)N2` (stereo in doubt) [Compound 29, 3,7,7-trimethyl-4-(2-(trifluoromethyl)phenyl)-6,7,8,9-tetrahydro-2H-pyrazolo[3,4-b]quinolin-5(4H)-one], the figures for the EC50 in experiment [2], in experiment [3] and in experiment [1] (setting [4]) were > 30 µM, > 50 µM and > 25 µM, respectively. `Cc1ccc(C2C3=C(CC(C)(C)CC3=O)Nc3n[nH]c(C)c32)cc1` (centres unmarked) [Compound 19, 3,7,7-trimethyl-4-(p-tolyl)-6,7,8,9-tetrahydro-1H-pyrazolo[3,4-b]quinolin-5(4H)-one]: the EC50 in experiment [1] (setting [4]) was > 25 µM. For the compound `COc1cccc(C2C3=C(CC(C)(C)CC3=O)Nc3n[nH]c(C)c32)c1` (centres unmarked) [Compound 23, 4-(3-methoxyphenyl)-3,7,7-trimethyl-6,7,8,9-tetrahydro-1H-pyrazolo[3,4-b]quinolin-5(4H)-one], the EC50 in experiment [1] (setting [4]) was > 25 µM. `CC1(C)CC(=O)C2=C(C1)Nc1n[nH]c(Cl)c1C2(C)c1ccccc1` (centres unmarked) [Compound 110]: the EC50 in experiment [2] is 4.55 µM. Take `Cc1[nH]nc2c1C(c1ccc3c(c1)OCO3)C1=C(CC(C)(C)CC1=O)N2` (centres unmarked) [Compound 26, 4-(benzo[d][1,3]dioxol-5-yl)-3,7,7-trimethyl-6,7,8,9-tetrahydro-1H-pyrazolo[3,4-b]quinolin-5(4H)-one]: the EC50 in experiment [1] (setting [4]) is > 25 µM. `COc1ccccc1C1C2=C(CC(C)(C)CC2=O)Nc2n[nH]c(C)c21` (racemic) [Compound 20, 4-(2-methoxyphenyl)-3,7,7-trimethyl-6,7,8,9-tetrahydro-1H-pyrazolo[3,4-b]quinolin-5(4H)-one]: the EC50 in experiment [2] is 9.14 µM; in experiment [1] (setting [4]), 17.9 µM. Turning to `Cc1[nH]nc2c1C(c1ccc(Cl)cc1)C1=C(CC(C)(C)CC1=O)N2` (centres unmarked) [Compound 15, 4-(4-chlorophenyl)-3,7,7-trimethyl-6,7,8,9-tetrahydro-1H-pyrazolo[3,4-b]quinolin-5(4H)-one], in experiment [1] (setting [4]), the EC50 is > 25 µM. As to `Cc1cccc(C2C3=C(CC(C)(C)CC3=O)Nc3n[nH]c(C)c32)c1` (centres unmarked) [Compound 18, 3,7,7-trimethyl-4-(m-tolyl)-6,7,8,9-tetrahydro-2H-pyrazolo[3,4-b]quinolin-5(4H)-one], the EC50 in experiment [3] is > 50 µM; in experiment [1] (setting [4]) it was > 25 µM. With `CC1(C)CC(=O)C2=C(C1)Nc1n[nH]c(C(F)(F)F)c1[C@H]2c1ccccc1C(F)(F)F` (stereo in doubt) [Compound 73, 7,7-dimethyl-3-(trifluoromethyl)-4-(2-(trifluoromethyl)phenyl)-6,7,8,9-tetrahydro-2H-pyrazolo[3,4-b]quinolin-5(4H)-one], the EC50 was 22 µM in experiment [2] and > 25 µM in experiment [1] (setting [4]). As to `CCC1(c2ccccc2)C2=C(CC(C)(C)CC2=O)Nc2n[nH]c(C)c21` (racemic) [Compound 89, 9-ethyl-1,6,6-trimethyl-9-phenyl-5,6,7,9-tetrahydro-2H-pyrazolo[3,4-b]quinolin-8(4H)-one], in experiment [2], the EC50 came to 22.2 µM. As to `Cc1[nH]nc2c1C(c1ccc(Br)cn1)C1=C(CC(C)(C)CC1=O)N2` (centres unmarked) [Compound 39, 4-(5-bromopyridin-2-yl)-3,7,7-trimethyl-6,7,8,9-tetrahydro-1H-pyrazolo[3,4-b]quinolin-5(4H)-one], the EC50 in experiment [1] (setting [4]) is > 25 µM. With `Cc1[nH]nc2c1C(c1ccccc1)(C(F)(F)F)C1=C(CC(C)(C)CC1=O)N2` (centres unmarked) [Compound 92, 1,6,6-trimethyl-9-phenyl-9-(trifluoromethyl)-5,6,7,9-tetrahydro-2H-pyrazolo[3,4-b]quinolin-8(4H)-one], the EC50 in experiment [2] amounted to 20.4 µM.

As for `Cc1[nH]nc2c1C(c1ccccc1F)C1=C(CC(C)(C)CC1=O)N2` (centres unmarked) [Compound 10, 4-(2-fluorophenyl)-3,7,7-trimethyl-6,7,8,9-tetrahydro-1H-pyrazolo[3,4-b]quinolin-5(4H)-one], in experiment [1] (setting [4]), the EC50 was determined as 12.7 µM. As for `COc1ccccc1C1C2=C(CC(C)(C)CC2=O)Nc2n[nH]c(C(F)(F)F)c21` (racemic) [Compound 53, 4-(2-methoxyphenyl)-7,7-dimethyl-3-(trifluoromethyl)-6,7,8,9-tetrahydro-2H-pyrazolo[3,4-b]quinolin-5(4H)-one], the values for the EC50 in experiment [3] and in experiment [1] (setting [5]) were 14 µM and 16.9 µM, respectively.

Consider `Cc1[nH]nc2c1[C@H](c1ccccc1Br)C1=C(CC(C)(C)CC1=O)N2` (racemic) [Compound 80, 4-(2-bromophenyl)-3,7,7-trimethyl-6,7,8,9-tetrahydro-2H-pyrazolo[3,4-b]quinolin-5(4H)-one], for which the EC50 in experiment [1] (setting [4]) was determined as 5.63 µM. For `Cc1[nH]nc2c1[C@@H](c1ccccc1C#N)C1=C(CC(C)(C)CC1=O)N2` [Compound 32, 2-(3,7,7-trimethyl-5-oxo-4,5,6,7,8,9-hexahydro-2H-pyrazolo[3,4-b]quinolin-4-yl)benzonitrile], in experiment [1] (setting [4]), the EC50 amounted to 23.4 µM. On the same count and under the same terms, the same measure for `Cc1[nH]nc2c1C(c1cccnc1)C1=C(CC(C)(C)CC1=O)N2` (centres unmarked) [Compound 37, 3,7,7-trimethyl-4-(pyridin-3-yl)-6,7,8,9-tetrahydro-1H-pyrazolo[3,4-b]quinolin-5(4H)-one]: > 25 µM; for `Cc1[nH]nc2c1C(c1cccs1)C1=C(CC(C)(C)CC1=O)N2` (racemic) [Compound 5, 3,7,7-trimethyl-4-(thiophen-2-yl)-6,7,8,9-tetrahydro-1H-pyrazolo[3,4-b]quinolin-5(4H)-one]: > 25 µM; for `COc1ccc(C2C3=C(CC(C)(C)CC3=O)Nc3n[nH]c(C)c32)cc1` (centres unmarked) [Compound 24, 4-(4-methoxyphenyl)-3,7,7-trimethyl-6,7,8,9-tetrahydro-1H-pyrazolo[3,4-b]quinolin-5(4H)-one]: > 25 µM. On to `Cc1[nH]nc2c1C(c1ccncc1)C1=C(CC(C)(C)CC1=O)N2` (centres unmarked) [Compound 38, 3,7,7-trimethyl-4-(pyridin-4-yl)-6,7,8,9-tetrahydro-1H-pyrazolo[3,4-b]quinolin-5(4H)-one], for which, in experiment [1] (setting [5]), the EC50 is > 25 µM.

`Cc1[nH]nc2c1C(c1ccccn1)C1=C(CC(C)(C)CC1=O)N2` (centres unmarked) [Compound 36, 3,7,7-trimethyl-4-(pyridin-2-yl)-6,7,8,9-tetrahydro-1H-pyrazolo[3,4-b]quinolin-5(4H)-one]: the EC50 in experiment [1] (setting [4]) is > 25 µM.

Turning to `COC(=O)c1[nH]nc2c1C(C)(c1ccccc1)C1=C(CC(C)(C)CC1=O)N2` (centres unmarked) [Compound 104], in experiment [2], the EC50 was 4.48 µM. In the case of `Cc1[nH]nc2c1C(c1ccc(C(F)(F)F)cc1)C1=C(CC(C)(C)CC1=O)N2` (centres unmarked) [Compound 31, 3,7,7-trimethyl-4-(4-(trifluoromethyl)phenyl)-6,7,8,9-tetrahydro-2H-pyrazolo[3,4-b]quinolin-5(4H)-one], the EC50 is > 50 µM in experiment [3] and > 25 µM in experiment [1] (setting [4]). With `Cc1[nH]nc2c1C(C)(c1ccccc1)C1=C(CC(C)(C)CC1=O)N2` (centres unmarked) [Compound 67, 3,4,7,7-tetramethyl-4-phenyl-6,7,8,9-tetrahydro-2H-pyrazolo[3,4-b]quinolin-5(4H)-one], the EC50 in experiment [1] (setting [4]) is > 25 µM. In the case of `CC1(C)CC(=O)C2=C(C1)Nc1n[nH]c(C(F)(F)F)c1[C@@H]2c1ccccc1C(F)(F)F` (stereo in doubt) [Compound 72, 7,7-dimethyl-3-(trifluoromethyl)-4-(2-(trifluoromethyl)phenyl)-6,7,8,9-tetrahydro-2H-pyrazolo[3,4-b]quinolin-5(4H)-one], the EC50 in experiment [2] came to 0.426 µM; in experiment [1] (setting [4]), 1.49 µM.

For the compound `Cc1[nH]nc2c1C(c1ccn[nH]1)C1=C(CC(C)(C)CC1=O)N2` (centres unmarked) [Compound 40, 3,7,7-trimethyl-4-(1H-pyrazol-5-yl)-6,7,8,9-tetrahydro-1H-pyrazolo[3,4-b]quinolin-5(4H)-one], the EC50 in experiment [1] (setting [4]) is > 25 µM.

With `Cc1[nH]nc2c1C(c1ccsc1)C1=C(CC(C)(C)CC1=O)N2` (centres unmarked) [Compound 8, 3,7,7-trimethyl-4-(thiophen-3-yl)-6,7,8,9-tetrahydro-1H-pyrazolo[3,4-b]quinolin-5(4H)-one], the EC50 in experiment [1] (setting [4]) is > 25 µM.

As to `Cc1[nH]nc2c1C(c1ccc(F)cc1)C1=C(CC(C)(C)CC1=O)N2` (centres unmarked) [Compound 12, 4-(4-fluorophenyl)-3,7,7-trimethyl-6,7,8,9-tetrahydro-1H-pyrazolo[3,4-b]quinolin-5(4H)-one], the EC50 in experiment [1] (setting [4]) was > 25 µM.

These data come from patent US10137122B2, “Kinase inhibitors and methods of use thereof” (priority 2012, dated 2018).
